± gives the expanded uncertainty stated by the source.
Conditions: Crystal; visual observation

CCn1cc[n+](C)c1.Cc1ccc(S(=O)(=O)[O-])cc1 [1-ethyl-3-methylimidazolium 4-methylbenzenesulfonate]
Normal melting temperature: 54.2 ± 0.7 °C

CCn1cc[n+](C)c1.[Br-] [1-ethyl-3-methylimidazolium bromide]
Normal melting temperature: 77.1 ± 0.7 °C
